Biological target: T1, Human transferrin (Htf) (Homo sapiens, UniProt P02787)
T1 construct: gene TF; single-chain glycoprotein of 679 amino acids (mature plasma protein)
Test: intrinsic fluorescence quenching, modified Stern-Volmer
Assay type: binding
Settings: 5 μM protein, sodium phosphate (PBS) buffer, excitation 280 nm, emission 300-400 nm, ligand 1-10 μM from DMSO stock; pH and temperature not given

T1 sequence (P02787 20-698): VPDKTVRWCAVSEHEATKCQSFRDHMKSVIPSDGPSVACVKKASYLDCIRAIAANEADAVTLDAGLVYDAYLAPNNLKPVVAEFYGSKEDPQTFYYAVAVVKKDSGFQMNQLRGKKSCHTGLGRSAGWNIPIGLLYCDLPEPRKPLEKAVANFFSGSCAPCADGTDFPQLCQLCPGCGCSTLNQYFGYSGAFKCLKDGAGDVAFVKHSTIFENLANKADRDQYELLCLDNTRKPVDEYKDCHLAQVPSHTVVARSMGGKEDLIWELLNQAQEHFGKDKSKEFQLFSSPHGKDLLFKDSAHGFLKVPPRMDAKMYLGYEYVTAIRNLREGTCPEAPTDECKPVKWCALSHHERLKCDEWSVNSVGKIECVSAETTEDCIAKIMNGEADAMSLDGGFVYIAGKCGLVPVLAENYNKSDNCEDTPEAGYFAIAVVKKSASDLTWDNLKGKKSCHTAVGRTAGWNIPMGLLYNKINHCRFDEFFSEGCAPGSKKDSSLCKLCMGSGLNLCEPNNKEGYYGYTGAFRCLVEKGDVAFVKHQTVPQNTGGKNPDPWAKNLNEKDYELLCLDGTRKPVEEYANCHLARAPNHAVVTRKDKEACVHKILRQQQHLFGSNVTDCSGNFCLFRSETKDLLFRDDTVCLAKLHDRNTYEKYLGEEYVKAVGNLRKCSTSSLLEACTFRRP

For `NCCc1c[nH]c2ccccc12` [Tryptamine], the K was 480000 M⁻¹.
